In PubChem BioAssay (NCI) one finds TGI and GI50 data, which are given here for 12 compounds.

Among the test systems are COLO 205 colon; EKVX NSCLC; K-562 leukemia; LOX IMVI melanoma; NCI-H522 lung; OVCAR-8 ovarian; SNB-75 CNS; M14 melanoma; NCI/ADR-RES ovarian.
Experiment in all cases: inhibition of tumour cell growth, NCI panel, 48 h

Where “and” joins values, the source holds several entries; their conditions need not be identical. Identical values can stand only once.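 Cells were grown in 96-well plates and exposed to each compound for 48 hours at five concentrations; endpoints were interpolated linearly between bracketing concentrations, or set to the highest concentration if not reached. Here, GI50 denotes the concentration required for 50% inhibition of growth. TGI: total growth inhibition.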

As to `Cc1ccc2c(c1)C1C(CO2)C(c2ccccc2)=NN1c1ccccc1` (configuration not stated), the TGI with COLO 205 colon, in the assay on EKVX NSCLC, in the assay with K-562 leukemia, with LOX IMVI melanoma, in the assay with NCI-H522 lung and in the assay on OVCAR-8 ovarian was over 100 µM each time. In the assay on SNB-75 CNS, this compound gave a TGI of over 100 µM.
On to `COC(=O)N/N=C(\C(=O)Nc1cccc([N+](=O)[O-])c1)c1nc2ccc([N+](=O)[O-])cc2[nH]c1=O`, for which the TGI with COLO 205 colon is over 100 µM; with EKVX NSCLC, over 100 µM; in the assay on K-562 leukemia it was over 100 µM; with LOX IMVI melanoma, over 100 µM; with M14 melanoma, over 100 µM; in the assay with NCI-H522 lung, 96.6 µM. Also, the TGI in the assay with OVCAR-8 ovarian and in the assay with SNB-75 CNS was over 100 µM each time.
For the compound `COC(=O)NN1C(C)=C(C(=O)OC)C2(C#N)C(C(=O)OC)=C(C)N(NC(=O)OC)C12N` (configuration not stated), the TGI in the assay on COLO 205 colon, in the assay on EKVX NSCLC, in the assay on K-562 leukemia, in the assay with LOX IMVI melanoma, with M14 melanoma and with NCI-H522 lung was over 100 µM each time. The TGI in the assay on OVCAR-8 ovarian was over 100 µM.
As to `CSc1ccc(OCC2OC2O)cc1` (configuration not stated), the TGI in the assay with COLO 205 colon was 35.5 µM; in the assay on EKVX NSCLC, over 100 µM; in the assay on K-562 leukemia it was over 100 µM; in the assay with LOX IMVI melanoma it was over 31.6 µM; in the assay with M14 melanoma it was over 100 µM; in the assay with NCI-H522 lung, over 81.6 µM. Moreover, the TGI in the assay on OVCAR-8 ovarian and with SNB-75 CNS was over 100 µM each time.
On to `CSCC[C@H](NC(=O)[C@H](CC(C)C)NC(=O)[C@@H](Cc1ccccc1)NC(=O)CNC(=O)[C@@H](NC(=O)[C@H](C)NC(=O)[C@H](Cc1c[nH]c2ccccc12)NC(=O)[C@H](CCC(N)=O)NC(=O)[C@H](N)CC(N)=O)C(C)C)C(N)=O`, for which the TGI in the assay on COLO 205 colon, in the assay with EKVX NSCLC, with K-562 leukemia, in the assay on LOX IMVI melanoma, in the assay on M14 melanoma and in the assay on NCI/ADR-RES ovarian was over 12.5 µM in each case. Besides, the TGI in the assay with OVCAR-8 ovarian and in the assay on SNB-75 CNS was over 12.5 µM throughout.
Consider `CC1=NN2C(c3ccc(C)cc3)=CSC2=NC(C)(C)C1`, for which the TGI in the assay on COLO 205 colon, in the assay with EKVX NSCLC, with K-562 leukemia, in the assay on LOX IMVI melanoma, in the assay with M14 melanoma and in the assay with NCI-H522 lung was over 100 µM in each case. Moreover, the TGI in the assay with OVCAR-8 ovarian and in the assay with SNB-75 CNS was over 100 µM each time.
With `C1COCCOCCOCCOCCOCCO1.[Cl][Sn]([Cl])([c]1ccccc1)[c]1ccccc1`, the GI50 with COLO 205 colon is 1.83 µM; in the assay on EKVX NSCLC, 6.77 µM; in the assay on K-562 leukemia, 2.44 µM; in the assay with LOX IMVI melanoma, 2.36 µM; with M14 melanoma, 4.25 µM; in the assay with NCI-H522 lung it was 766 nM. Also, the GI50 in the assay with OVCAR-8 ovarian is 4.97 µM; in the assay on SNB-75 CNS, 5.19 µM. Further, the TGI in the assay with COLO 205 colon was 4.34 µM; in the assay with EKVX NSCLC it was 19 µM; with K-562 leukemia it was 10.2 µM; with LOX IMVI melanoma, 4.77 µM; in the assay with M14 melanoma, 12.4 µM; in the assay on NCI-H522 lung, 2.05 µM. For the same compound, the TGI turned out to be 16.4 µM in the assay on OVCAR-8 ovarian and 19.6 µM in the assay with SNB-75 CNS.
Take `CCN(CC)CCOc1ccc(/C=C2\C[C@H]3[C@H]4CC=C5C[C@@H](O)CC[C@]5(C)[C@H]4CC[C@]3(C)[C@H]2O)cc1OC`: the GI50 was 12.8 µM in the assay on COLO 205 colon; 8.09 µM in the assay on K-562 leukemia; 7.7 µM in the assay with LOX IMVI melanoma; 6.12 µM in the assay on M14 melanoma; 216 nM in the assay on NCI-H522 lung; 9.98 µM with NCI/ADR-RES ovarian. Besides, the GI50 in the assay with OVCAR-8 ovarian is 12.9 µM. Also, the TGI in the assay with COLO 205 colon is over 50 µM; in the assay on K-562 leukemia it was 32 µM; in the assay with LOX IMVI melanoma it was 15.3 µM; with M14 melanoma, 16.8 µM; with NCI-H522 lung, over 50 µM; in the assay with NCI/ADR-RES ovarian, 22 µM. Also, the TGI in the assay on OVCAR-8 ovarian came to 26.5 µM.
As to `C/C=C(/CCC1NCCC2c3ccccc3NC12)[Si](C)(C)C` (configuration not stated), the TGI with COLO 205 colon worked out at 3.15 µM; in the assay on EKVX NSCLC it was 27.4 µM; in the assay on K-562 leukemia it was 7.7 µM; with LOX IMVI melanoma, 20.2 µM; in the assay with M14 melanoma, 11.8 µM; in the assay on NCI-H522 lung, 30.2 µM. For the same compound, the results for the TGI in the assay on OVCAR-8 ovarian and with SNB-75 CNS were 21.1 µM and 21.4 µM, respectively.
As for `NC1=NN(c2ccccc2)C(=O)C1/C(=N\NC(=O)c1cc2ccccc2cc1O)C(=O)Nc1cccc(C(F)(F)F)c1` (configuration not stated), the TGI in the assay on COLO 205 colon, in the assay with EKVX NSCLC, in the assay with LOX IMVI melanoma, with M14 melanoma, in the assay on OVCAR-8 ovarian and in the assay on SNB-75 CNS was over 100 µM each time.
In the case of `COC(=O)C[CH2][Ge]([CH3])([CH3])[S]c1ccccc1`, the GI50 is 30.4 µM in the assay with COLO 205 colon; 28.2 µM in the assay on EKVX NSCLC; 34.8 µM with K-562 leukemia; 12.5 µM with LOX IMVI melanoma; 36.5 µM in the assay on M14 melanoma; 10800 nM in the assay on NCI-H522 lung. Besides, the GI50 in the assay with OVCAR-8 ovarian is 25.2 µM; in the assay with SNB-75 CNS, 31.4 µM. For the same compound, the TGI in the assay with COLO 205 colon is 69.9 µM; in the assay with EKVX NSCLC, 86.4 µM; in the assay with K-562 leukemia, over 100 µM; in the assay with LOX IMVI melanoma, 26.2 µM; in the assay with M14 melanoma, over 100 µM; with NCI-H522 lung it was 23.2 µM. For the same compound, the results for the TGI in the assay with OVCAR-8 ovarian and in the assay on SNB-75 CNS were 83.8 µM and over 100 µM, respectively.
With `C=C(C)C1CC=C(C)CC1` (configuration not stated), the GI50 was over 100 µM in the assay with COLO 205 colon; over 100 µM in the assay on EKVX NSCLC; over 100 µM in the assay on K-562 leukemia; over 100 µM in the assay with LOX IMVI melanoma; over 100 µM with M14 melanoma; over 100000 nM with NCI-H522 lung. Besides, the GI50 in the assay with OVCAR-8 ovarian and in the assay on SNB-75 CNS was over 100 µM in each case. In addition, the TGI in the assay on COLO 205 colon is > 100 µM and 1760 µM; with EKVX NSCLC it was > 100 µM and 1830 µM; in the assay with K-562 leukemia it was > 100 µM and 1720 µM; in the assay with LOX IMVI melanoma it was > 100 µM and 1620 µM; in the assay on M14 melanoma, > 100 µM and 1700 µM; in the assay with NCI-H522 lung, > 100 µM and 1710 µM. Also, the TGI in the assay with OVCAR-8 ovarian is > 100 µM and 1860 µM; in the assay on SNB-75 CNS it was > 100 µM and 1710 µM.
